In patent EP2348142B1, “Method and composition for removing scale deposits formed on a metal surface within a steam generating system” (Westinghouse Electric Company LLC, priority 2010, dated 2011):
Like-named read-outs stand apart in the source and are kept apart here.

How the values were obtained:
[1] = at 25 °C; cited from earlier work
[2] = Example 11; base raised from 0.15-0.2 wt% to 5 wt%; covers both solids
Description: In order to verify this assumption, solutions of TMAH were compared with those of the similarly strong base choline hydroxide (CholOH). Mixtures of 0.06 g sand + 0.06 g boehmite or 0.06 g sand + 0.06 g boehmite + 0.68 g magnetite were exposed to volumes of 40 mL of several solutions of TMAH or CholOH for 48 hours at a temperature of 80 °C. Each experiment was carried out in duplicate. The spent test solutions were analyzed to determine the concentrations of dissolved Si, Al, and Fe and the percentage of each of the corresponding oxides in the test solutions was calculated.

[3] = Example 1; both stages; covers B+S and B+S+M
Description: An example embodiment of the present invention was evaluated in laboratory testing using mixtures of 0.06 g of boehmite and 0.06 g of silica sand (B+S) or of 0.06 g of boehmite, 0.06 g of silica sand, and 0.68 g of magnetite (B+S+M). These mixtures were heated at 80 °C for 1 day, with 40 mL volumes of a solution of 381 ppm (0.0381%) of TMAH in de-ionized water, adjusted with boric acid to a room-temperature pH of 11.0.
At the end of 1 day, the solutions were removed for analysis of dissolved Al, Si, and Fe, and the experiment on the residual solids was continued for an additional 2-day interval using fresh volumes of the original solutions. In addition to the fractions of each oxide dissolved during the experiment, the mole ratios of metals dissolved to base (TMAH or DMA) introduced were also calculated.

[4] = Example 2; for ratio of dissolved metals (Al, Si and Fe) to base: unadjusted solutions, both stages
Description: Other example embodiments of the present invention were evaluated in laboratory testing using mixtures of 0.02 g of boehmite and 0.02 g of silica sand (B+S), and 0.23 g of magnetite (B+S+M). These mixtures were heated at 80 °C for 1 day, with 40 mL volumes of solutions of 1500 ppm (0.15%) of TMAH in de-ionized water, without pH adjustment, adjusted with boric acid to a room-temperature pH of 11.0, or adjusted with boric acid to a room-temperature pH of 9.0.
All the solutions were sparged with nitrogen for 15 minutes at the beginning of each experiment.
After one day (∼ 24 hours), the solutions were removed for analysis of dissolved Al, Si, and Fe. The experiment on the residual solids was continued for an additional 2-day interval using fresh volumes of the original solutions. In addition to the fractions of each oxide dissolved during the experiment, the mole ratios of metals dissolved to base (TMAH or DMA) introduced were also calculated.

[5] = Example 3; both stages; covers B+S and B+S+M
Description: Another example embodiment of the present invention was evaluated in laboratory testing using mixtures of 0.06 g of boehmite and 0.06 g of silica sand (B+S) or of 0.06 g of boehmite, 0.06 g of silica sand, and 0.68 g of magnetite (B+S+M). These mixtures were heated at 80 °C for 1 day with 40 mL volumes of a solution of 46 ppm (0.0046%) of TMAH in de-ionized water, having a room-temperature pH of 10.8.
At the end of 1 day, the solutions were removed and analyzed for dissolved Al, Si, and Fe. The experiment on the residual solids was continued for an additional 2-day interval using fresh volumes of the original solutions. In addition to the fraction of each oxide dissolved during the experiment, the mole ratios of metals dissolved to base (TMAH or DMA) introduced were also calculated.

[6] = Example 4; covers B+S and B+S+M
Description: Another example embodiment of the present invention was evaluated in laboratory testing using mixtures of 0.06 g of boehmite and 0.06 g of silica sand (B+S) or of 0.06 g of boehmite, 0.06 g of silica sand, and 0.68 g of magnetite (B+S+M). These mixtures were heated at 80 °C for 1 day, with 40 mL volumes of a combined solution of 50.8 g/L (5.08%) of TMAH and 10 g•L^-1 (1%) of ethylenediaminetetra-acetic acid (EDTA) in de-ionized water.
At the end of 1 day, the solutions were removed for analysis of dissolved Al, Si, and Fe. In addition to fractions of each oxide dissolved during the experiment, the mole ratios of the amount of metals dissolved to base (TMAH or DMA) introduced were also calculated.

[7] = Dissolution of boehmite (Example 5); settings: 0.03 g boehmite alone
[8] = Coupon corrosion test with pre-heated TMAH solutions (Example 9); settings: 5 wt% TMAH + 1 wt% EDTA
Description: In order to determine the effect of possible thermal degradation of TMAH on its corrosivity towards steel, C1018 carbon steel coupons were tested in three solutions of 5 wt% TMAH + 1 wt% EDTA. […] One of these solutions was not pre-exposed to elevated temperatures. The second solution was exposed to a temperature of 130 ±10 °C for two days before being used in the test. During pre-heating period, the 20-mL Parr bomb in which the solution was heated was almost full, leaving very little vapor space above the solution. The third solution was similarly pre-heated at 130 ±10 °C for two days, but the Parr bomb was only half-full, holding 10 mL of solution and 10 mL of air. The three TMAH solutions were later used in testing of 1018 carbon steel coupons in 40 mL of testing solution for 1 week.

[9] = cited from earlier work

C1=NCCCN2CCCCC12 (stereo not shown) [1,5-diazabicyclo(5,4,0)undec-5-ene]
pH [1]: 13.40

C[N+](C)(C)CCO.[OH-] [CholOH, choline hydroxide]
extent of dissolution of boehmite increased by a factor [2]: approximately 1.7

CNC [DMA, dimethylamine, reference compound]
ratio of dissolved Al to base [3]: 0.06-0.07
ratio of dissolved metals (Al, Si and Fe) to base [4]: 0.03-0.06
ratio of dissolved Al to base [5]: 0.04-0.10
ratio of total dissolved metal (predominantly dissolved Al) to introduced base [6]: 0.02-0.04
pKa [1]: about 10.61

C[N+](C)(C)C.[OH-] [TMAH, Tetramethylammonium hydroxide]
dissolution of Al higher by a factor, versus DMA solution [7]: 13
pH of the solution ([8]; after pre-heating in the absence of air): approximately 13.4
pH of the solution ([8]; before pre-heating): approximately 13.0
ratio of dissolved Al to base [3]: 0.24-0.29
mole ratios higher by factors, TMAH versus DMA ([4]; pH adjusted solutions): 2-8
ratio of dissolved metals (Al, Si and Fe) to base [4]: 0.09-0.10
ratio of dissolved Al to base [5]: 0.05-0.27
more effective than DMA by a factor (mole ratio calculations) [6]: 4-7
ratio of total dissolved metal (predominantly dissolved Al) to introduced base [6]: 0.15-0.16
extent of dissolution of boehmite increased by a factor [2]: approximately 1.7
thermally stable in aqueous solutions up to [9]: 130-135 °C

CCCCN [mono-N-butylamine]
pH [1]: 10.61
